Tests used:
[1] = test system: Mouse hepatitis virus (MHV); assay: mouse model of coronavirus infection (MHV infected mice); assay type: in vivo, C57BL/6J male mice; settings: vs vehicle; for clinical score / clinical severity of virus induced neuropathology: 50 mg/kg, treatment started 3 days after virus infection till Day 21, P<0.05 on days 9, 10 or 14
Procedure: Tripentadecanoin was tested in a mouse model of coronavirus infection. The objective of this study was to investigate tripentadecanoin's therapeutic effects in MHV infected mice. Mouse hepatitis virus (MHV) causes acute infections of the murine liver and lungs and persistent infections of the gastrointestinal tract and central nervous system (CNS). […] This virus was named JHM virus (JHMV) and subsequently shown to be a coronavirus, related to other MHV strains (Bergmann, C., Lane, T. & Stohlman, S. Coronavirus infection of the central nervous system: host-virus stand-off. Nat Rev Microbiol 2006; 4:121-132.). JMHV is now broadly used to study virus-induced neurological diseases, particularly demyelination. It is considered to be a suitable model for coronavirus-induced neurological complication. CNS infection with MHV provides an animal model for acute viral-induced encephalomyelitis and the human demyelinating disease, multiple sclerosis. MHV-induced demyelinating disease is typified by mice, which control viral replication, but fail to fully clear virus. Acute infection induces CNS inflammation and initiates the demyelinating process. Animals that fail to control virus replication in a sufficiently rapid manner succumb to encephalomyelitis within 5-10 days. Survivors of acute infection typically eliminate infectious virus within two weeks. However, these animals still fail to achieve sterile immunity as evidenced by the persisting viral antigen (Ag) and RNA within the CNS. MHV persistence is associated with chronic CNS inflammation and ongoing primary demyelination.
20 C57BL/6J male mice of at 5 weeks of age were randomized into 2 groups of vehicle control or tripentadecanoin 50 mg/kg. Tripentadecanoin or vehicle control treatment was started 3 days after virus infection for a total of 19 days till Day 21. Clinical score of MHV infected mice was rated as: 0—asymptomatic; 1—limp tail; 2—wobbly gait with righting difficulty; 3—hind limb weakness and extreme righting difficulty; 4—hind limb paralysis; 5—moribund.

[2] = test system: NMU-induced photoreceptor degeneration (retina); assay: murine model of N-nitroso-N-methylurea (NMU) photoreceptor degeneration; assay type: in vivo, C57BL/6J mice; settings: for outer nuclear layer (ONL) area under the curve (AUC -1.75 to +1.75 μm): H&E histology; for number of rows of photoreceptor nuclei: mid-peripheral region
Procedure: Eighteen 8-12-week-old female C57BL/6J mice were randomized into three groups: 1) NMU+vehicle; 2) NMU+Tripentadecanoin 20 mg/kg; 3) NMU+Tripentadecanoin 50 mg/kg. NMU at a dose of 50 mg/kg was injected i.p. to all mice; Tripentadecanoin (or vehicle) was administered daily via oral gavage starting 3 days before NMU and continuing until 7 days after NMU challenge. Retina were imaged by spectral domain optical coherence tomography (OCT) 5 days before exposing to NMU and 7 days after NMU. All eyes were collected and processed for histological hematoxylin and eosin (H&E) staining. The thicknesses of photoreceptors were measured from different locations on OCT images and H&E slides, respectively. Photoreceptor thickness on H&E slides were quantified using automated Leica software (Leica, Heerbrugg), operated by a single masked observer. Results were expressed as the outer nuclear layer (ONL) area under the curve (AUC −1.75 to +1.75 μm) and number of rows of photoreceptor nuclei.

[3] = test system: YHB1 (yeast homologue of neuroglobin) mRNA; assay: RNAseq of yeast cells treated with tripentadecanoin; assay type: cell-based, Saccharomyces cerevisiae
Procedure: (§1) Potential targets of the compound of formula (I) were identified by using RNAseq. The yeast cells (Saccharomyces cerevisiae) were treated with tripentadecanoin (30 μM) for 5 hours and the mRNA abundance of all genes in cells that were treated with the compound or vehicle only for 5 hours was quantitatively monitored. Samples in triplicate were processed by the company Genewiz. […] Among these hits is Yhb1, a flavohemoglobin that plays a role in nitrosative stress response (FIG. 4A). Following the results from the RNAseq survey, PH084, YHB1 or VTC4 were knocked out and the proportion of old cells with an Hsp104-GFP focus was measured, as before. While pho84Δ cells were similar to wild type cells, much more vtc4Δ and yhb1Δ mutant cells contained an age-induced deposit (FIG. 4A).

[4] = test system: neuroglobin mRNA; assay: Expression of neuroglobin in mouse primary cortical neurons (qPCR); assay type: cell-based, C57BL/6J mouse
Procedure: Healthy neurons preparation: primary mouse cortical neurons from embryonic day 16-17 were prepared from C57BL/6J mouse foetuses, resulting in 95-97% of neurons and 3-5% astrocytes. At DIV 5/6, mouse primary cortical neurons was treated for 3 h (T3) or 24 h (T24) with vehicle (ethanol) or increasing concentrations of tripentadecanoin (100 or 1000 nM). q PCRmethods used to amplify the mRNA of neuroglobin.
The amount and quality of RNA were evaluated using capillary electrophoresis. The complementary DNA (cDNA) was synthesized by reverse transcription of total RNA in presence of oligo(dT) and “Transcriptor reverse transcriptase” from Roche. The cDNA quantities were then adjusted before the PCRstep. The qPCRreactions were performed using the Licht Cycler system from Roche according to supplier instructions. In this experiment, Rps28 (Ribosomal protein S28) was used as a reference marker (also referred to as housekeeping gene).
The reaction mix (10 μL final) was prepared as follows: • 2.5 μL cDNA • Primers and TaqMan probe • Reagent mix containing taq DNA polymerase and MgCl2.
The following primers were used in this experiment: […]

[5] = test system: Hsp104-GFP age-induced protein deposit; assay: Hsp104-GFP age-induced protein deposit in old yeast cells (replicative ageing); assay type: cell-based, Saccharomyces cerevisiae; settings: for proportion of cells with an Hsp104-GFP focus / proportion of cells with an Hsp104-GFP focus decreased: 30 μM
Excerpt: While yeast populations can be propagated ad libitum, the yeast mother cell has a finite lifespan and can only produce a certain amount of daughter cells, typically 25 for laboratory backgrounds. Mortality rate increases with the number of daughter cells produced, therefore this phenomenon is termed replicative ageing. In old yeast cells, age-induced protein deposits recruit a specific set of chaperones and co-chaperones.
Hsp104 expressed endogenously as a fusion to the green fluorescent protein tag (Hsp104-GFP) forms a focus in old cells. The presence (percentage of cells with an aggregate at a certain age), number (number of foci per cell) and size (fluorescent brightness) can be assessed on hundreds of cells and thus, this gives a good model for assessing the biology of age induced aggregates.
To test if tripentadecanoin is active in yeast, cells were treated with different concentrations of the purified compound (1 μM, 10 μM and 30 μM) as well as an extract (10 μg/ml) of the plant it is derived from (Ophioglossum thermale). These cells were let to age in the presence of the compound and after 10-11 generations, cells were imaged to count their age and assess whether they contained a Hsp104-GFP age-induced protein deposit or not (FIG. 3A).
as §1

**Q.** How did the “clinical score / clinical severity of virus induced neuropathology” value [1] turn out when `CCCCCCCCCCCCCCC(=O)OCC(COC(=O)CCCCCCCCCCCCCC)OC(=O)CCCCCCCCCCCCCC` [tripentadecanoin] was run?
**A.** reducing the clinical severity of virus induced neuropathology

**Q.** What about the “clinical score / clinical severity of virus induced neuropathology” value ([1]; listed as compound of the formula (I)) of the same compound?
**A.** improved clinical score

**Q.** And the “weight loss of animals” value ([1]; mouse model of coronavirus infection)?
**A.** reduced weight loss of animals

**Q.** And the “outer nuclear layer (ONL) area under the curve (AUC -1.75 to +1.75 μm)” value ([2]; 20 mg/kg daily oral gavage, p<0.01 vs vehicle)?
**A.** 73.58±14.45

**Q.** And the “number of rows of photoreceptor nuclei” value ([2]; 20 mg/kg, p<0.01 vs vehicle)?
**A.** 6.4±1.2

**Q.** And the “outer nuclear layer (ONL) area under the curve (AUC -1.75 to +1.75 μm)” value ([2]; 50 mg/kg daily oral gavage, p<0.001 vs vehicle)?
**A.** 83.08±19.05

**Q.** What about the “number of rows of photoreceptor nuclei” value ([2]; 50 mg/kg, p<0.001 vs vehicle) of the same compound?
**A.** 7.0±1.7

**Q.** What about the “neuroretinal thickness (OCT)” value ([2]; 50 mg/kg, peripheral (p<0.05), mid-peripheral (p<0.05) and central retina (p<0.01) vs vehicle) of the same compound?
**A.** significantly increased

**Q.** And the “thickness of photoreceptor layers (in vivo OCT images)” value ([2]; OCT 7 days after NMU, vs control)?
**A.** increased thickness of photoreceptor layers

**Q.** What about the “mRNAs significantly differentially expressed vs vehicle” value ([3]; 30 μM, 5 hours, RNAseq, triplicate) of the same compound?
**A.** 157

**Q.** And the “expression of YHB1” value ([3]; yeast cells treated with tripentadecanoin)?
**A.** significantly increased

**Q.** What about the “expression of neuroglobin vs vehicle control” value ([4]; 1000 nM, 3 hours, p<0.001) of the same compound?
**A.** significant increased expression of neuroglobin

**Q.** And the “increase in the expression level of neuroglobin” value ([4]; mouse neurons, Example 4)?
**A.** approximately six-fold

**Q.** What about the “cells containing a Hsp104-GFP age-induced protein deposit (focus)” value ([5]; 1 μM, 10 μM and 30 μM, after 10-11 generations, vs vehicle 0.3% ethanol) of the same compound?
**A.** less likely to harbor a Hsp104-GFP focus

**Q.** What about the “proportion of cells with an Hsp104-GFP focus” value ([5]; pho84Δ cells) of the same compound?
**A.** decreased

**Q.** What about the “proportion of cells with an Hsp104-GFP focus decreased” value ([5]; vtc4Δ mutant cells) of the same compound?
**A.** this was not the case

**Q.** And the “proportion of cells with an Hsp104-GFP focus” value ([5]; wild type cells)?
**A.** decreased

**Q.** And the “aggregation of HSP-104 (GFP-HSP104 loci)” value ([5]; yeast cells, summary statement)?
**A.** greatly reduced

**Q.** And the “proportion of cells with an Hsp104-GFP focus decreased” value ([5]; yhb1Δ mutant cells)?
**A.** this was not the case

From patent US20240307339A1, “NOVEL COMPOUNDS FOR THE TREATMENT AND PREVENTION OF NEUROLOGICAL COMPLICATIONS OF VIRAL INFECTIONS” (Sunregen Healthcare AG, priority 2021, published 2024)
